Patent US8598384B2, “Crystalline teglicar” (Sigma-Tau Industrie Farmaceutiche Riunite S.p.A., priority 2007, dated 2013)

Experiments:
[1] = Karl Fisher analysis (water content), hygroscopic stability; assay type: physicochemical; conditions: exposed to the air for 18 hours; for KF (% H2O) t = 18 h: kept at room temperature
Protocol: Water content analysis were carried out with a Metrohm's KF Coulometer, using Metrohm glass vials (volume 10 mL) with elastometric tight closure, with about 10÷40 mg of sample. The samples were analyzed at 140° C.
The reference was an empty vial of the same kind. Sodium Tartrate diHydrate (theoretical amount is 15.66%) was used to assess the calibration of the apparatus with regard to the humidity.
Then these compounds were kept at room temperature under the same conditions, exposed to the air for 18 hours.

[2] = tested on: ketogenesis; conditions: in vivo, fasted rats; cited from earlier work
[3] = target: T1, L-CPT I (liver CPT isoform I) (Homo sapiens, UniProt P50416); conditions: in vitro; cited from earlier work
T1 sequence (P50416 1-773): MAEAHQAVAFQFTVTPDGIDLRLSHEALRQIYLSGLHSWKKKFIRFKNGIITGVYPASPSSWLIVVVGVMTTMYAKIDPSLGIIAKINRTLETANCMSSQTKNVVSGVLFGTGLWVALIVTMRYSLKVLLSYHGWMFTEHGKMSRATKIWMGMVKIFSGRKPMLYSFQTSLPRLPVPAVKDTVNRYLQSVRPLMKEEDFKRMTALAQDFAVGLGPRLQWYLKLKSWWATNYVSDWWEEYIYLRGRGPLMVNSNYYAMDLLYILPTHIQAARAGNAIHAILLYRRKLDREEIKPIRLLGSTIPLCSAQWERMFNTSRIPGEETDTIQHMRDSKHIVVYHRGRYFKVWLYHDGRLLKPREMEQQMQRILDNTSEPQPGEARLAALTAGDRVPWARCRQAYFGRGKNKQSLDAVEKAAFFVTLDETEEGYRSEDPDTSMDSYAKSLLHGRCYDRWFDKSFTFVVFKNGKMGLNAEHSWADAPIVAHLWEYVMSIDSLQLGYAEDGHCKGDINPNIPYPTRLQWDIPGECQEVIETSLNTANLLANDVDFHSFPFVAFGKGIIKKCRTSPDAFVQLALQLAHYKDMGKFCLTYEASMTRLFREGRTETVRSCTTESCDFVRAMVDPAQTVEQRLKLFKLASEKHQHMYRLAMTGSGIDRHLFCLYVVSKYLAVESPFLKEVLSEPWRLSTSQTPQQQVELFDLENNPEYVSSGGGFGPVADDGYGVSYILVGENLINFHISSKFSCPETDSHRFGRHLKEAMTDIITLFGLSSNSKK

[4] = tested on: serum glucose levels; conditions: diabetic mouse model; cited from earlier work

CCCCCCCCCCCCCCNC(=O)N[C@H](CC(=O)[O-])C[N+](C)(C)C [Comparative Example 2, R-4-trimethylammonium-3-(tetradecylcarbamoyl)-amino butyrate]
KF (% H2O) t = 18 h [1]: 15.2% | change of H2O content after exposure to air ([1]; room temperature, repeated KF analysis): large increase of H2O content

CCCCCCCCCCCCCCNC(=O)N[C@H](CC(=O)[O-])C[N+](C)(C)C [Example 1, R-4-trimethylammonium-3-(tetradecylcarbamoyl)-amino butyrate]
KF (% H2O) t = 18 h [1]: 5.8%

CCCCCCCCCCCCCCNC(=O)N[C@H](CC(=O)[O-])C[N+](C)(C)C [teglicar, R-4-trimethylammonium-3-(tetradecylcarbamoyl)-amino butyrate]
effect on ketogenesis [2]: depress ketogenesis | selectivity of inhibition of L-CPT I with respect to M-CPT I [3]: selectively inhibit | change in heart weight and triglycerides content [4]: without any significant change | effect on serum glucose levels [4]: good reduction of serum glucose levels
